Test results taken from paper PMC3351444, “Molecular Evolution of a Peptide GPCR Ligand Driven by Artificial Neural Networks” (PLoS ONE, 2012).
Like-named read-outs stand apart in the source and are kept apart here. Square brackets hold non-standard residues; d marks the D form. Ends that are not written are not given here. Peptide text beside a SMILES is read from it.

Assays:
[1] = In vitro peptide stability in human serum (RP-HPLC); details: for half-life at 50 µg/mL: human; for t1/2: metabolic stability in human serum
human CMKLR1 = molecular target: T1, human CMKLR1 (Homo sapiens, UniProt Q99788); test: Ca2+ mobilization (CellLux imaging) agonist assay in HEK293A cells expressing CMKLR1 and Gα15; assay type: cell-based
T1 construct: host or cells: HEK293A (Invitrogen), stably expressing human Gα15
T1 sequence (Q99788 1-373): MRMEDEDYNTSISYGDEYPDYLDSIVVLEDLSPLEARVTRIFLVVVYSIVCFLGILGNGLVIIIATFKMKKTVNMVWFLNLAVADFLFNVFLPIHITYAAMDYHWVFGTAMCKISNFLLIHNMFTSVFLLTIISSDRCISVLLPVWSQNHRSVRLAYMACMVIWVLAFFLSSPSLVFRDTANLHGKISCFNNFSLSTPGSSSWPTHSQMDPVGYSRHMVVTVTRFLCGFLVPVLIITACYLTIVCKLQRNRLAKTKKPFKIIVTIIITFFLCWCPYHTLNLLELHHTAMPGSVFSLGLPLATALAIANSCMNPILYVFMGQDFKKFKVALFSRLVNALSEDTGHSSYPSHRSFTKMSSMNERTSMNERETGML
How it was run: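 Agonist-evoked Ca2+ rise, read as FLUO4-AM fluorescence by imaging, in HEK293A cells carrying CMKLR1 plus Gα15. Peptides were diluted in C1 solution (pH 7.4) containing 0.1% BSA. Duplicate signals were averaged, corrected for buffer wells and normalized to background, and EC50 was fitted from amplitude versus concentration.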

[2] = intracellular calcium mobilization, HEK293 cells expressing CMKLR1, mean of three independent experiments ± SD, read-out: activity: EC50 ±SD
[3] = Ca2+ mobilization, CMKLR1, decimal comma
[4] = Ca2+ mobilization, CMKLR1, decimal comma, NR where no EC50 is given, read-out: EC50

Row | Molecule | half-life at 50 µg/mL ([1]; human serum, 25% (v/v) in RPMI) [h] | EC50 (human CMKLR1; [2]) [µM] | t1/2 [1] [h] | max response (human CMKLR1; [3]) | EC50 (human CMKLR1; [4]) [µM] | half-life at 50 µg/mL ([1]; serum) [h]
1 | CC(C)C[C@H](NC(=O)[C@@H](N)Cc1ccc(O)cc1)C(=O)N1CCC[C@H]1C(=O)N[C@H](CCC(N)=O)C(=O)N[C@@H](CCC(N)=O)C(=O)N[C@@H](Cc1ccc(O)cc1)C(=O)N[C@@H](C)C(=O)N[C@@H](Cc1ccccc1)C(=O)N[C@H](Cc1ccccc1)C(=O)O [YLPqQYAFf] (H-YLP[dQ]QYAF[dF]-OH; N-terminus assumed) | 1.45 ± 0.317 | 0.00424 ± 0.00187 |  |  |  | 
2 | CC(C)C[C@H](NC(=O)[C@H](N)Cc1ccc(O)cc1)C(=O)N1CCC[C@H]1C(=O)N[C@H](CO)C(=O)N[C@@H](CCC(N)=O)C(=O)N[C@@H](Cc1ccc(O)cc1)C(=O)N[C@@H](C)C(=O)N[C@@H](Cc1ccccc1)C(=O)N[C@H](CO)C(=O)O [compound 121] (H-[dY]LP[dS]QYAF[dS]-OH; N-terminus assumed) |  |  | 23.47 | 1,6 DF/F0 |  | 
3 | YLPGQYAFL-OH [compound 38] |  |  | 0.45 | 1,05 DF/F0 |  | 
4 | PGPGQFAFF-OH [compound 59] | 1.33 |  |  | 0,9 DF/F0 | 0.335 | 
5 | CC(C)C[C@H](NC(=O)[C@H](N)Cc1ccc(O)cc1)C(=O)N1CCC[C@@H]1C(=O)NCC(=O)N[C@@H](CCC(N)=O)C(=O)N[C@@H](Cc1ccc(O)cc1)C(=O)N[C@@H](C)C(=O)N[C@@H](Cc1ccccc1)C(=O)N[C@@H](CO)C(=O)O [compound 104] (H-[dY]L[dP]GQYAFS-OH; N-terminus assumed) | 1.33 |  |  | 1,73 DF/F0 | 0.246 | 
6 | YLPGQFQFS-OH [compound 44] | 0.25 |  |  | 0,76 DF/F0 | 0.00954 | 
7 | CC(C)C[C@H](NC(=O)[C@@H](N)Cc1ccc(O)cc1)C(=O)N1CCC[C@H]1C(=O)N[C@H](CC(C)C)C(=O)NCC(=O)N[C@@H](Cc1ccc(O)cc1)C(=O)N[C@@H](C)C(=O)N1CCC[C@@H]1C(=O)N[C@H](Cc1ccccc1)C(=O)O [compound 151] (H-YLP[dL]GYA[dP][dF]-OH; N-terminus assumed) | 1.52 |  |  | 1,47 DF/F0 | 0.298 | 
8 | YLPGQYAFY-OH [compound 48] | 0.267 |  |  | 0,92 DF/F0 | 0.0156 | 
9 | FLPPQFAFF-OH [compound 73] | 0.333 |  |  | 0,77 DF/F0 | 3 | 
10 | FLFGFQFAY-OH [compound 109] | 0.267 |  |  | 1,7 DF/F0 | 1.65 | 
11 | CC(C)C[C@H](NC(=O)[C@@H](N)Cc1ccc(O)cc1)C(=O)N1CCC[C@H]1C(=O)NCC(=O)N[C@@H](CCC(N)=O)C(=O)N[C@@H](Cc1ccccc1)C(=O)N[C@H](Cc1ccc(O)cc1)C(=O)N[C@@H](Cc1ccccc1)C(=O)N[C@@H](CO)C(=O)O [compound 57] (H-YLPGQF[dY]FS-OH; N-terminus assumed) | 0.433 |  |  | 0,89 DF/F0 | 0.119 | 
12 | CC(C)C[C@@H](NC(=O)[C@H](Cc1c[nH]cn1)NC(=O)[C@@H](N)CO)C(=O)NCC(=O)N[C@@H](CCC(N)=O)C(=O)N[C@@H](Cc1ccccc1)C(=O)N[C@H](Cc1c[nH]c2ccccc12)C(=O)N[C@@H](Cc1ccccc1)C(=O)N[C@H](CO)C(=O)O [compound 139] (H-SH[dL]GQF[dW]F[dS]-OH; N-terminus assumed) | 0.933 |  |  | 1,55 DF/F0 | 0.104 | 
13 | CC(C)C[C@H](NC(=O)[C@H](N)Cc1ccc(O)cc1)C(=O)N1CCC[C@H]1C(=O)N[C@H](CO)C(=O)N[C@@H](CCC(N)=O)C(=O)N[C@@H](Cc1ccc(O)cc1)C(=O)N[C@@H](C)C(=O)N[C@@H](Cc1ccccc1)C(=O)N[C@H](Cc1ccccc1)C(=O)O [compound 120] (H-[dY]LP[dS]QYAF[dF]-OH; N-terminus assumed) |  |  |  | 1,97 DF/F0 |  | 28.2
14 | YLPGQFAFL-OH [compound 39] | 0.4 |  |  | 1,01 DF/F0 | 0.00585 | 
15 | YLPGYLPGH-OH [compound 77] | 0.283 |  |  | 1,04 DF/F0 | 217 | 
16 | CC(C)C[C@@H](NC(=O)[C@H](Cc1c[nH]cn1)NC(=O)[C@H](N)CO)C(=O)NCC(=O)N[C@@H](CCC(N)=O)C(=O)N[C@@H](Cc1ccc(O)cc1)C(=O)N[C@@H](C)C(=O)N[C@@H](Cc1ccccc1)C(=O)N[C@H](Cc1ccccc1)C(=O)O [compound 140] (H-[dS]H[dL]GQYAF[dF]-OH; N-terminus assumed) | 10.2 |  |  | 1,49 DF/F0 | 0.105 | 
17 | CC(C)C[C@H](NC(=O)[C@H](N)Cc1ccccc1)C(=O)N1CCC[C@H]1C(=O)NCC(=O)N[C@@H](CCC(N)=O)C(=O)N[C@@H](Cc1ccc(O)cc1)C(=O)N[C@@H](C)C(=O)N[C@@H](Cc1ccccc1)C(=O)N[C@H](Cc1ccccc1)C(=O)O [fLPGQYAFf] (H-[dF]LPGQYAF[dF]-OH; N-terminus assumed) | 19.3 ± 0.683 | 0.0082 ± 0.00396 |  |  |  | 
18 | C[C@H](NC(=O)[C@H](Cc1ccc(O)cc1)NC(=O)[C@H](CCC(N)=O)NC(=O)CNC(=O)[C@H](Cc1ccccc1)NC(=O)[C@H](Cc1ccc(O)cc1)NC(=O)[C@H](N)CS)C(=O)N[C@@H](Cc1ccccc1)C(=O)N[C@H](CO)C(=O)O [compound 113] (H-[dC]YFGQYAF[dS]-OH; N-terminus assumed) | 0.483 |  |  | 1,56 DF/F0 | 2.19 | 
19 | CC(C)C[C@H](NC(=O)[C@H](N)Cc1ccccc1)C(=O)N1CCC[C@H]1C(=O)NCC(=O)N[C@@H](CCC(N)=O)C(=O)N[C@@H](Cc1ccc(O)cc1)C(=O)N[C@@H](C)C(=O)N[C@@H](Cc1ccccc1)C(=O)N[C@H](Cc1ccccc1)C(=O)O [compound 83] (H-[dF]LPGQYAF[dF]-OH; N-terminus assumed) |  |  | 19.28 | 1,82 DF/F0 |  | 
20 | CC(C)C[C@H](NC(=O)[C@H](Cc1ccccc1)NC(=O)CNC(=O)[C@@H]1CCCN1C(=O)[C@H](CC(C)C)NC(=O)[C@@H](N)Cc1ccccc1)C(=O)N[C@@H](C)C(=O)N[C@@H](CC(C)C)C(=O)N1CCC[C@@H]1C(=O)O [compound 72] (H-FLPGFLAL[dP]-OH; N-terminus assumed) | 3.63 |  |  | 0,64 DF/F0 | 2.61 | 
21 | PLPGQFQFK-OH [compound 70] | 0.45 |  |  | 0,43 DF/F0 | 1.92 | 
22 | C[C@H](NC(=O)[C@H](Cc1ccccc1)NC(=O)[C@H](C)NC(=O)[C@H](Cc1ccc(O)cc1)NC(=O)[C@H](C)NC(=O)[C@H](Cc1ccccc1)NC(=O)[C@@H](CO)NC(=O)[C@H](Cc1ccccc1)NC(=O)[C@@H](N)CCC(N)=O)C(=O)O [compound 102] (H-QF[dS]FAYAFA-OH; N-terminus assumed) | 1.38 |  |  | 1,78 DF/F0 | 0.143 | 
23 | CC(C)C[C@H](NC(=O)[C@@H]1CCCN1C(=O)[C@@H]1CCCN1)C(=O)N[C@H](Cc1c[nH]c2ccccc12)C(=O)N[C@@H](CCC(N)=O)C(=O)N[C@@H](Cc1ccc(O)cc1)C(=O)N[C@@H](C)C(=O)N[C@H](CC(=O)O)C(=O)N[C@H](CO)C(=O)O [compound 153] (H-PPL[dW]QYA[dD][dS]-OH; N-terminus assumed) | 1.43 |  |  | 1,31 DF/F0 | 0.313 | 
24 | NC(=O)CC[C@H](NC(=O)CNC(=O)[C@@H]1CCCN1C(=O)[C@@H](Cc1ccc(O)cc1)NC(=O)[C@H](Cc1ccc(O)cc1)NC(=O)[C@H](CCC(N)=O)NC(=O)[C@H](N)Cc1ccccc1)C(=O)N[C@@H](Cc1ccc(O)cc1)C(=O)N[C@@H](Cc1ccc(O)cc1)C(=O)O [compound 137] (H-[dF]QY[dY]PGQYY-OH; N-terminus assumed) | 1.8 |  |  | 1,42 DF/F0 | 0.103 | 
25 | FLPGQFLPG-OH [compound 63] | 0.767 |  |  | 0,81 DF/F0 | 0.554 | 
26 | FLPGQYAFS-OH [compound 34] |  |  | 0.467 | 0,68 DF/F0 |  | 
27 | CC(C)C[C@@H](NC(=O)[C@H](Cc1c[nH]cn1)NC(=O)[C@H](N)CO)C(=O)NCC(=O)N[C@@H](CCC(N)=O)C(=O)N[C@@H](Cc1ccc(O)cc1)C(=O)N[C@@H](C)C(=O)N[C@H](CC(=O)O)C(=O)N[C@@H](CO)C(=O)O [compound 96] (H-[dS]H[dL]GQYA[dD]S-OH; N-terminus assumed) | 54.1 |  |  | 1,63 DF/F0 | 0.0905 | 
28 | FLPGQYAFS-OH | 0.467 ± 0.0167 | 0.00275 ± 0.00014 |  |  |  | 
29 | CC(C)C[C@H](NC(=O)[C@@H](N)Cc1ccc(O)cc1)C(=O)N1CCC[C@H]1C(=O)N[C@H](CCC(N)=O)C(=O)N[C@@H](CCC(N)=O)C(=O)N[C@@H](Cc1ccc(O)cc1)C(=O)N[C@@H](C)C(=O)N[C@@H](Cc1ccccc1)C(=O)N[C@H](Cc1ccccc1)C(=O)O [compound 123] (H-YLP[dQ]QYAF[dF]-OH; N-terminus assumed) |  |  | 1.45 | 1,74 DF/F0 |  | 
